Reference: the supplement of paper PMC10307832

How the values were obtained:
Serdemetan = compound: c1ccc2c(CCNc3ccc(Nc4ccncc4)cc3)c[nH]c2c1 [Serdemetan]; test: relative viability (nuclei count vs DMSO), 5 days (fraction); higher = more cells survive
Outline: (§1)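 Only plates meeting two conditions passed: control CV below 25% and at least one doubling. Lung cancer cell lines, kept overnight at 37 °C in 1536-well plates, were pinned with five library-drug doses (not always all listed) √10 apart on vehicle-anchored plates and grown 5 days without medium change. A one-step fix, permeabilisation and Hoechst stain preceded 4× imaging and MetaXpress nuclear counting. Viability equals treated-well nuclei divided by vehicle-well nuclei, as the median over plates.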

Selisistat = compound: C1CC(C2=C(C1)C3=C(N2)C=CC(=C3)Cl)C(=O)N [Selisistat]; test: as above
Outline: as §1

| Cell Line | relative viability (Serdemetan; 0.04 µM) | relative viability (Serdemetan; 0.1265 µM) | relative viability (Serdemetan; 0.4 µM) | relative viability (Serdemetan; 1.265 µM) | relative viability (Serdemetan; 4 µM) | relative viability (Selisistat; 0.4 µM) | relative viability (Selisistat; 1.265 µM) | relative viability (Selisistat; 4 µM) | relative viability (Selisistat; 12.65 µM) | relative viability (Selisistat; 40 µM) |
| --- | --- | --- | --- | --- | --- | --- | --- | --- | --- | --- |
| NCI-H460 | 0.936 | 0.962 | 0.926 | 0.77 | 0.316 | 0.986 | 0.961 | 0.933 | 0.968 | 1.03 |
| NCI-H520 | 0.929 | 0.977 | 0.951 | 0.633 | 0.856 | 0.978 | 0.939 | 0.995 | 0.937 | 0.877 |
| NCI-H522 | 1.03 | 0.938 | 0.943 | 0.605 | 1.09 | 0.899 | 0.964 | 0.763 | 0.806 | 0.885 |
| NCI-H596 | 1.03 | 0.981 | 0.989 | 0.76 | 0.768 | 1.08 | 0.994 | 0.849 | 1.03 | 0.983 |
| NCI-H647 | 0.905 | 0.964 | 0.964 | 0.819 | 0.655 | 0.958 | 0.964 | 0.826 | 0.959 | 1.03 |
| NCI-H650 | 0.896 | 0.889 | 0.934 | 0.878 | 0.764 | 0.948 | 0.868 | 1.08 | 0.886 | 1.06 |
| NCI-H661 | 0.974 | 0.977 | 1.01 | 0.815 | 0.94 | 1.02 | 1 | 1 | 0.901 | 0.906 |
| NCI-H727 | 0.936 | 0.808 | 1.07 | 0.669 | 0.555 | 0.95 | 1 |  | 0.863 | 0.895 |
| NCI-H838 | 0.959 | 0.976 | 0.98 | 0.92 | 1.14 | 1.03 | 0.958 | 0.863 | 0.96 | 0.985 |
| NCI-H1299 | 1.01 | 1 | 0.975 | 0.895 | 0.754 | 1.05 | 1.03 | 1.04 | 1.02 | 1.01 |
| NCI-H1355 | 0.99 | 1.05 | 0.907 | 0.936 | 0.918 | 1.02 | 0.987 | 0.832 | 0.97 | 1.03 |
| NCI-H1395 | 0.869 | 1.02 | 0.927 | 0.804 | 0.61 | 1.02 | 0.883 | 0.701 | 0.863 | 0.9 |
| NCI-H1437 | 0.905 | 0.994 | 0.98 | 0.928 | 0.799 | 0.945 | 0.974 | 0.805 | 0.933 | 0.855 |
| NCI-H1563 | 0.866 | 0.849 | 0.8 | 0.622 | 0.744 | 0.972 | 0.886 | 0.906 | 0.865 | 0.902 |
| NCI-H1623 | 0.969 | 1.02 | 0.961 | 0.815 | 0.713 | 1.08 | 1.08 | 0.843 | 1.09 | 1.18 |
| NCI-H1648 |  | 1.07 | 0.924 | 0.472 | 0.358 | 0.769 | 0.787 | 1.04 | 1.19 | 1.19 |
| NCI-H1650 | 0.916 | 0.892 | 0.788 | 0.759 | 0.688 | 0.823 | 0.844 | 0.829 | 0.905 | 0.911 |
| NCI-H1651 | 0.847 | 0.899 | 0.832 | 0.507 | 0.399 | 0.995 | 0.958 | 0.893 | 0.924 | 0.949 |

| Cell Line | relative viability (Serdemetan; 0.04 µM) | relative viability (Serdemetan; 0.1265 µM) | relative viability (Serdemetan; 0.4 µM) | relative viability (Serdemetan; 1.265 µM) | relative viability (Serdemetan; 4 µM) | relative viability (Selisistat; 0.4 µM) | relative viability (Selisistat; 1.265 µM) | relative viability (Selisistat; 4 µM) | relative viability (Selisistat; 12.65 µM) | relative viability (Selisistat; 40 µM) |
| --- | --- | --- | --- | --- | --- | --- | --- | --- | --- | --- |
| NCI-H1666 | 0.985 | 0.946 | 0.934 | 0.634 | 0.781 | 1.06 | 0.933 | 0.877 | 1.04 | 0.966 |
| NCI-H1703 | 1.08 | 0.84 | 0.882 | 0.764 | 0.71 | 0.894 | 0.834 | 0.9 | 0.853 | 0.848 |
| NCI-H1734 | 0.854 | 0.455 | 0.821 | 0.171 | 0.263 | 1.02 | 0.942 | 0.921 | 1.08 | 1.03 |
| NCI-H1755 | 1 | 0.975 | 0.959 | 0.775 | 0.763 | 1.08 | 1.1 | 0.977 | 1.01 | 1.08 |
| NCI-H1792 | 0.934 | 0.674 | 0.848 | 0.593 | 0.62 | 0.927 | 1.18 |  | 0.862 | 0.855 |
| NCI-H1793 | 1.03 | 0.873 | 0.562 | 0.471 | 0.572 | 0.968 | 0.846 |  | 0.956 | 0.942 |
| NCI-H1915 | 1 | 1.02 | 0.996 | 0.819 | 0.948 | 0.992 | 1.03 | 0.795 | 0.963 | 1 |
| NCI-H1944 | 0.95 | 0.918 | 0.858 | 0.469 | 0.738 | 1.11 | 0.92 |  | 0.858 | 0.975 |
| NCI-H1975 | 0.934 | 0.978 | 0.919 | 0.937 | 0.993 | 0.952 | 0.839 | 0.763 | 0.825 | 0.836 |
| NCI-H1993 | 0.977 | 0.995 | 0.699 | 0.831 | 0.89 | 0.911 | 0.898 |  | 1.01 | 1.04 |
| NCI-H2009 | 0.97 | 0.967 | 1 | 0.776 | 0.885 | 1.01 | 1.03 | 0.772 | 0.933 | 0.975 |
| NCI-H2023 | 0.884 | 1.09 | 0.932 | 0.424 | 0.345 | 0.952 | 0.966 | 0.828 | 0.876 | 0.934 |
| NCI-H2085 | 0.964 | 0.968 | 0.897 | 0.844 | 0.744 | 1.11 | 0.991 | 0.858 | 0.965 | 1.05 |
| NCI-H2087 | 1.16 | 1.08 | 0.944 | 0.57 | 0.409 | 1.18 | 1.06 |  | 0.89 | 0.97 |
| NCI-H2126 | 1.02 | 1.05 | 0.96 | 0.948 | 1.02 | 1.08 | 1.05 | 0.833 | 0.999 | 1.02 |
| NCI-H2170 | 1 | 1.02 | 1 | 0.972 | 0.985 | 1.02 | 0.978 | 0.956 | 1.03 | 1.1 |
| NCI-H2228 | 0.974 | 0.98 | 0.945 | 0.342 | 0.336 | 0.9 | 1.12 | 0.966 | 1.05 | 1.11 |
